{"source": "ChEMBL document CHEMBL4673296", "about": "(J Med Chem, 2020)", "key": {"[1]": {"system": "MDA-MB-468", "test": "Induction of apoptosis in human MDA-MB-468 cells assessed as late apoptotic cells at 10 uM measured after 18 hrs in low-glucose, amino acid-free Earles balanced salt solution (EBSS) media by AnnexinV/7-AAD staining based flow cytometric analysis (reference value: 7.6%)", "type": "functional"}, "[2]": {"biological_target": "T1, Serine/threonine-protein kinase ULK1 (Homo sapiens) (UniProt O75385)", "T1 sequence (whole entry)": "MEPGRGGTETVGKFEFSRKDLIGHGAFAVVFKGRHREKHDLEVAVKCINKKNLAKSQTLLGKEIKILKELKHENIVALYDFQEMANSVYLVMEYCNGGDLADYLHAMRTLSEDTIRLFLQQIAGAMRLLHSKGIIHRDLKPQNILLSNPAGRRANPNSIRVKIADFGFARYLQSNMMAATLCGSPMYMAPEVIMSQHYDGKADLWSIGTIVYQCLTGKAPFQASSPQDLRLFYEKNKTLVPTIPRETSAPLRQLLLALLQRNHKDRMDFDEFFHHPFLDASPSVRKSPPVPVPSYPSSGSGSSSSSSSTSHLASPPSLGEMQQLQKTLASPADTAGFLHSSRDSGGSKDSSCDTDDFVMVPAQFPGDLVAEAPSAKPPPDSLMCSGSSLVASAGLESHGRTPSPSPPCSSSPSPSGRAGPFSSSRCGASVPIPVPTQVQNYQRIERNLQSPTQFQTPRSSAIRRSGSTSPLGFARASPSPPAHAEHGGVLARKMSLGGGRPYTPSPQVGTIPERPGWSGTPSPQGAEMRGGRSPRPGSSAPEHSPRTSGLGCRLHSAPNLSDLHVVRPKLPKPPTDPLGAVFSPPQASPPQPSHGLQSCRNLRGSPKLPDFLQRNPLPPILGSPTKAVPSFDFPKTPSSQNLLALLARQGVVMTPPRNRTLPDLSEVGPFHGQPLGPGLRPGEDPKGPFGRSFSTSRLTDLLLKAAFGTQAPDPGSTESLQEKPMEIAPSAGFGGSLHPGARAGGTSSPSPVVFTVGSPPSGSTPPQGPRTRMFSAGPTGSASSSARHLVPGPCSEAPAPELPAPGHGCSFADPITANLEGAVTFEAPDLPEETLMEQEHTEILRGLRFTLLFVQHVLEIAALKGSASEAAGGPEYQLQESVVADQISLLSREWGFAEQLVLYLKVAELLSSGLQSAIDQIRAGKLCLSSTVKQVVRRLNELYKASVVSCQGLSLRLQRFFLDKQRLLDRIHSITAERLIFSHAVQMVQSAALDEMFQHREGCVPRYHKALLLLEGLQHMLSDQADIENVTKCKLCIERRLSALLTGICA", "test": "Inhibition of Myc-tagged ULK1 (unknown origin) expressed in HEK293T cells cotransfected with wild-type Flag tagged Beclin-1 assessed as decrease in pBeclin1 Ser15 at 10 uM measured after 1 hr by Western blot analysis relative to control", "type": "cell-based"}, "[3]": {"system": "MDA-MB-468", "test": "Reduction in autophagosome accumulation in human MDA-MB-468 cells at 10 uM by transmission electron microscopic analysis", "type": "functional, cell-based"}, "[4]": {"system": "Mus musculus", "test": "Decrease in ULK1 level in liver lysate of C57BL/6J mouse at 10 mg/kg, po measured after 2 hrs by Western blot analysis", "type": "functional, organism-based"}, "[5]": {"system": "MDA-MB-468", "test": "Synergistic cytotoxicity against human MDA-MB-468 cells at 0.19 to 1.7 uM in presence of PARP inhibitor niraparib measured after 72 hrs by Celltiter-Glo assay", "type": "functional, cell-based", "conditions": "dose 0.19-1.7 µM"}, "[6]": {"biological_target": "T2, Serine/threonine-protein kinase ULK2 (Homo sapiens, UniProt Q8IYT8)", "T2 sequence (Q8IYT8 whole entry)": "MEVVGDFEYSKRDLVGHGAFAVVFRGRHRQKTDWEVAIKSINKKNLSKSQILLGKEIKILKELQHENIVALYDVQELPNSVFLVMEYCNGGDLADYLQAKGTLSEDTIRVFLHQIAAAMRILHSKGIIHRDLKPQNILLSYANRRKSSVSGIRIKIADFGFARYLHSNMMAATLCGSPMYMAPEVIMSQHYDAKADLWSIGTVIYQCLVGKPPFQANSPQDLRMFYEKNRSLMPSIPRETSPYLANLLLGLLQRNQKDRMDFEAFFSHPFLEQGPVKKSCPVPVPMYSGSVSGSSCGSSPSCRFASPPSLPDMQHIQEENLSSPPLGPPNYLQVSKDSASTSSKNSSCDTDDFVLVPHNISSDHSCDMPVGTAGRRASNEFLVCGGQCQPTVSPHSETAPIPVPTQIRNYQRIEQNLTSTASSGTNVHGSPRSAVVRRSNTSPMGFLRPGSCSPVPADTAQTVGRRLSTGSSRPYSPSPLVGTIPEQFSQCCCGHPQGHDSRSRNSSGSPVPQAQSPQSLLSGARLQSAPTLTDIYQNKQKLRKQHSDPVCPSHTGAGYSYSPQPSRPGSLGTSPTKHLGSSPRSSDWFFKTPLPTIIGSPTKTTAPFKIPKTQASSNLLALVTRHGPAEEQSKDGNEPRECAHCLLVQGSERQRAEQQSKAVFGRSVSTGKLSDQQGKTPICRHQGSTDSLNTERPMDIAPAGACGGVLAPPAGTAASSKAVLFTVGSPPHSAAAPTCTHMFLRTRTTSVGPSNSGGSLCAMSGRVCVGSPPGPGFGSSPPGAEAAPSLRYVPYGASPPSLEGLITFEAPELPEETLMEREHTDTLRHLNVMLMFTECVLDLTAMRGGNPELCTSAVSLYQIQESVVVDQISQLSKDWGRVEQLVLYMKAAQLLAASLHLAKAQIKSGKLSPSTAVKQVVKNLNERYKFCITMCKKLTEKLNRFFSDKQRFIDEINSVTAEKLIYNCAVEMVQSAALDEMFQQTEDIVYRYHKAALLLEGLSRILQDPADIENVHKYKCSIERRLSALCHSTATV", "test": "Inhibition of ULK2 (unknown origin) expressed in HEK293T cells incubated for 2 hrs by NanoBRET assay", "type": "cell-based"}, "[7]": {"biological_target": "T2, Serine/threonine-protein kinase ULK2", "test": "Inhibition of recombinant human ULK2 (1 to 478 residues) expressed in Sf9 cells using myelin basic protein as substrate by ADP-glo assay"}, "[8]": {"biological_target": "T3, Serine/threonine-protein kinase ULK1 (Homo sapiens, UniProt O75385)", "T3 sequence (O75385 whole entry)": "T1 sequence (whole entry)", "test": "Inhibition of ULK1 (unknown origin) expressed in HEK293T cells incubated for 2 hrs by NanoBRET assay", "type": "cell-based"}, "[9]": {"system": "MDA-MB-468", "test": "Synergistic cytotoxicity against human MDA-MB-468 cells a t0.021 to 15 uM in presence of PARP inhibitor olaparib measured after 72 hrs by Celltiter-Glo assay", "type": "functional, cell-based", "conditions": "dose 0.021-15 µM"}, "[10]": {"system": "MDA-MB-468", "test": "Induction of apoptosis in human MDA-MB-468 cells assessed as necrotic cells at 10 uM measured after 18 hrs in normal growth media by AnnexinV/7-AAD staining based flow cytometric analysis (reference value: 0.2%)", "type": "functional"}, "[11]": {"test": "Half life in C57BL/6J mouse at 30 mg/kg, po measured upto 24 hrs by LC-MS/MS analysis", "type": "ADME, organism-based", "conditions": "in vivo"}, "[12]": {"test": "Apparent permeability of the compound across apical side to basolateral side in human Caco2 cells", "type": "ADME, cell-based", "conditions": "Caco-2"}, "[13]": {"test": "Efflux ratio of apparent permeability from basolateral side to apical side over apical side to basolateral side in human Caco2 cells", "type": "ADME, cell-based", "conditions": "Caco-2"}}, "note": "Activity calls are given as the source filed them. The rule behind the calls is not given here.", "data": [{"smiles": "COc1ccc(Nc2ncc(C(F)(F)F)c(NC3CC3)n2)cc1OC", "values": [{"measurement": "Activity", "setting": "[1]", "value": 18.4, "unit": "%"}, {"measurement": "inhibition", "setting": "[2]", "value": 60, "unit": "%"}, {"measurement": "inhibition", "setting": "[3]", "value": "Active"}, {"measurement": "inhibition", "setting": "[4]", "value": "Active"}, {"measurement": "Activity", "setting": "[5]", "value": "Active"}, {"measurement": "IC50", "setting": "[6]", "value": 1160, "unit": "nM"}, {"measurement": "IC50", "setting": "[7]", "value": 476, "unit": "nM"}, {"measurement": "IC50", "setting": "[8]", "value": 328, "unit": "nM"}, {"measurement": "Activity", "setting": "[9]", "value": "Active"}, {"measurement": "Activity", "setting": "[10]", "value": 0.2, "unit": "%"}, {"measurement": "half-life", "setting": "[11]", "value": 1.7, "unit": "h"}, {"measurement": "Papp A→B", "setting": "[12]", "value": "> 10", "unit": "×10⁻⁶ cm/s"}, {"measurement": "efflux ratio", "setting": "[13]", "value": "< 2"}]}]}
